Reference: ChEMBL document CHEMBL1201862, “PubChem BioAssay data set” (2004)
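A five-concentration, 48-hour dose response in 96-well plates underlies each endpoint, interpolated linearly between surrounding concentrations. Here, GI50 denotes the concentration required for 50% inhibition of growth.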 Activity calls are given as the source filed them. No stated cut-off is given here; in the data, active = GI50 up to about 1.1 µM and inactive = higher. Where a SMILES comes first, the peptide text is derived from it. The star is where a group is joined. Cbz = O=C(OCc1ccccc1)*; Boc = CC(C)(C)OC(=O)*; OSu = O=C1CCC(=O)N1O*; Bn = c1ccc(C*)cc1

Columns and labels:
Assay in all cases: growth of human tumour cells (NCI), 48 h
HCT-116 = test system: HCT-116
EKVX = test system: EKVX
ACHN = test system: ACHN
HOP-92 = test system: HOP-92
Malme-3M = test system: Malme-3M
KM12 = test system: KM12
OVCAR-8 = test system: OVCAR-8
MOLT-4 = test system: MOLT-4
COLO 205 = test system: COLO 205
RXF 393 = test system: RXF 393
HCC 2998 = test system: HCC 2998
SK-MEL-5 = test system: SK-MEL-5
SK-MEL-2 = test system: SK-MEL-2
SF-295 = test system: SF-295
MDA-MB-435 = test system: MDA-MB-435
SK-OV-3 = test system: SK-OV-3
SF-268 = test system: SF-268
NCI/ADR-RES = test system: NCI/ADR-RES
LOX IMVI = test system: LOX IMVI

CC(NC(=O)OC(C)(C)C)C(=O)NC(Cc1ccccc1)C(=O)NCC(=O)Oc1c(Cl)c(Cl)c(Cl)c(Cl)c1Cl (configuration not stated) was tested, and the GI50 (HCT-116) was 19.6 µM (inactive), the GI50 (EKVX) was 17.8 µM (inactive) and the GI50 (ACHN) was 25 µM (inactive). For the same compound, the GI50 (HOP-92) was 12.5 µM (inactive), the GI50 (Malme-3M) was 20.7 µM (inactive) and the GI50 (KM12) was 25 µM (inactive). The GI50 (OVCAR-8) was 19.6 µM (inactive), the GI50 (MOLT-4) was 23.2 µM (inactive) and the GI50 (COLO 205) was 29.7 µM (inactive). The GI50 (RXF 393) was 17.2 µM (inactive), the GI50 (HCC 2998) was 15.3 µM (inactive) and the GI50 (SK-MEL-5) was 13.6 µM (inactive). The GI50 (SK-MEL-2) was 20.7 µM (inactive).
With COc1ccc2c(C)cc(=O)oc2c1OC the GI50 (SF-295) was > 100 µM (inactive), the GI50 (HCT-116) was > 100 µM (inactive) and the GI50 (EKVX) was > 100 µM (inactive). The GI50 (MDA-MB-435) was > 100 µM (inactive), the GI50 (ACHN) was > 100 µM (inactive) and the GI50 (Malme-3M) was > 100 µM (inactive). For the same compound, the GI50 (KM12) was > 100 µM (inactive), the GI50 (OVCAR-8) was > 100 µM (inactive) and the GI50 (SK-OV-3) was > 100 µM (inactive). The GI50 (MOLT-4) was > 100 µM (inactive), the GI50 (SF-268) was > 100 µM (inactive) and the GI50 (COLO 205) was > 100 µM (inactive). The GI50 (NCI/ADR-RES) was > 100 µM (inactive), the GI50 (LOX IMVI) was > 100 µM (inactive) and the GI50 (SK-MEL-5) was > 100 µM (inactive). For the same compound, the GI50 (SK-MEL-2) was > 100 µM (inactive).
For Cc1ccc(N2C3=C(CC4=C2CC(C)(C)CC4=O)C(=O)CC(C)(C)C3)cc1, the GI50 (SF-295) was > 100 µM (inactive), the GI50 (HCT-116) was > 100 µM (inactive) and the GI50 (EKVX) was > 100 µM (inactive). The GI50 (MDA-MB-435) was > 100 µM (inactive), the GI50 (ACHN) was > 100 µM (inactive) and the GI50 (Malme-3M) was > 100 µM (inactive). For the same compound, the GI50 (KM12) was > 100 µM (inactive), the GI50 (OVCAR-8) was > 100 µM (inactive) and the GI50 (SK-OV-3) was > 100 µM (inactive). For the same compound, the GI50 (MOLT-4) was > 100 µM (inactive), the GI50 (SF-268) was > 100 µM (inactive) and the GI50 (COLO 205) was > 100 µM (inactive). The GI50 (NCI/ADR-RES) was > 100 µM (inactive), the GI50 (RXF 393) was > 100 µM (inactive) and the GI50 (LOX IMVI) was > 100 µM (inactive). For the same compound, the GI50 (HCC 2998) was > 100 µM (inactive) and the GI50 (SK-MEL-5) was > 100 µM (inactive).
In the case of CCCC1(CCC)c2cc(/C=N\O)ccc2-c2ccc(-c3ccc(C(C)(C)C)cc3)cc21, the GI50 (SF-295) is reported as 33.2 µM (inactive), the GI50 (HCT-116) is reported as 22.6 µM (inactive) and the GI50 (EKVX) is reported as 56.8 µM (inactive). The GI50 (ACHN) was 41.9 µM (inactive), the GI50 (HOP-92) was 64.9 µM (inactive) and the GI50 (Malme-3M) was > 100 µM (inactive). The GI50 (KM12) was 55.3 µM (inactive), the GI50 (OVCAR-8) was 32.5 µM (inactive) and the GI50 (SK-OV-3) was > 100 µM (inactive). For the same compound, the GI50 (MOLT-4) was 23.4 µM (inactive), the GI50 (SF-268) was 56 µM (inactive) and the GI50 (COLO 205) was > 100 µM (inactive). The GI50 (NCI/ADR-RES) was 53.8 µM (inactive), the GI50 (LOX IMVI) was 32.7 µM (inactive) and the GI50 (HCC 2998) was 42.6 µM (inactive). For the same compound, the GI50 (SK-MEL-5) was 80.4 µM (inactive) and the GI50 (SK-MEL-2) was 29 µM (inactive).
In the case of COc1cc(Br)cc2cc(-c3cn4c(n3)sc3ccccc34)c(=O)oc12, the GI50 (SF-295) is reported as 19.8 µM (inactive), the GI50 (HCT-116) is reported as 21.3 µM (inactive) and the GI50 (EKVX) is reported as 14.5 µM (inactive). For the same compound, the GI50 (MDA-MB-435) was 24.4 µM (inactive), the GI50 (ACHN) was 32 µM (inactive) and the GI50 (HOP-92) was 14.7 µM (inactive). The GI50 (KM12) was 30.4 µM (inactive), the GI50 (OVCAR-8) was 28.6 µM (inactive) and the GI50 (SK-OV-3) was 30.1 µM (inactive). The GI50 (MOLT-4) was 20.9 µM (inactive), the GI50 (SF-268) was 20 µM (inactive) and the GI50 (COLO 205) was 38.7 µM (inactive). The GI50 (NCI/ADR-RES) was 30.7 µM (inactive), the GI50 (LOX IMVI) was 18.4 µM (inactive) and the GI50 (SK-MEL-5) was 28.4 µM (inactive). For the same compound, the GI50 (SK-MEL-2) was 22.3 µM (inactive).
For Cc1cc(N(CCC#N)CCC#N)ccc1/N=N/c1ccc(C(=O)O)cc1, the GI50 (SF-295) was > 100 µM (inactive), the GI50 (EKVX) was > 100 µM (inactive) and the GI50 (ACHN) was > 100 µM (inactive). For the same compound, the GI50 (Malme-3M) was > 100 µM (inactive), the GI50 (KM12) was > 100 µM (inactive) and the GI50 (OVCAR-8) was > 100 µM (inactive). The GI50 (SK-OV-3) was > 100 µM (inactive), the GI50 (MOLT-4) was > 100 µM (inactive) and the GI50 (SF-268) was > 100 µM (inactive). For the same compound, the GI50 (COLO 205) was > 100 µM (inactive), the GI50 (RXF 393) was > 100 µM (inactive) and the GI50 (LOX IMVI) was > 100 µM (inactive). For the same compound, the GI50 (HCC 2998) was > 100 µM (inactive), the GI50 (SK-MEL-5) was > 100 µM (inactive) and the GI50 (SK-MEL-2) was > 100 µM (inactive).
CCN(CC)CCN1CCN=C2c3cc(OC)ccc3Nc3c([N+](=O)[O-])ccc1c32 was tested, and the GI50 (SF-295) was 1.82 µM (inactive), the GI50 (EKVX) was 1.69 µM (inactive) and the GI50 (MDA-MB-435) was 1.28 µM (inactive). The GI50 (HOP-92) was 2.21 µM (inactive), the GI50 (Malme-3M) was 1.54 µM (inactive) and the GI50 (KM12) was 1.15 µM (inactive). For the same compound, the GI50 (OVCAR-8) was 0.441 µM (active), the GI50 (SK-OV-3) was 2.52 µM (inactive) and the GI50 (MOLT-4) was 0.288 µM (active). For the same compound, the GI50 (SF-268) was 0.501 µM (active), the GI50 (COLO 205) was 1 µM (active) and the GI50 (RXF 393) was 0.843 µM (active). The GI50 (LOX IMVI) was 1.41 µM (inactive), the GI50 (HCC 2998) was 0.555 µM (active) and the GI50 (SK-MEL-5) was 1.55 µM (inactive).
With COC1=CC2=NCCc3n[nH]c(c32)C1=O the GI50 (SF-295) was 28.1 µM (inactive), the GI50 (HCT-116) was 13.7 µM (inactive) and the GI50 (EKVX) was 16.9 µM (inactive). The GI50 (MDA-MB-435) was 11.5 µM (inactive), the GI50 (ACHN) was 19.2 µM (inactive) and the GI50 (Malme-3M) was 16.3 µM (inactive). For the same compound, the GI50 (KM12) was 28.1 µM (inactive), the GI50 (OVCAR-8) was 15.2 µM (inactive) and the GI50 (MOLT-4) was 18.6 µM (inactive). For the same compound, the GI50 (COLO 205) was 17.7 µM (inactive), the GI50 (NCI/ADR-RES) was 29.1 µM (inactive) and the GI50 (LOX IMVI) was 2.35 µM (inactive). The GI50 (HCC 2998) was 47.1 µM (inactive), the GI50 (SK-MEL-5) was 18.3 µM (inactive) and the GI50 (SK-MEL-2) was 15.3 µM (inactive).
With CC(C)(C)OC(=O)NC(Cc1ccc(OCc2ccccc2)cc1)C(=O)NC(CCCCNC(=O)OCc1ccccc1)C(=O)ON1C(=O)CCC1=O (configuration not stated) (Boc-Tyr(Bn)-Lys(Cbz)-OSu; configuration not given here) the GI50 (HCT-116) was 19.9 µM (inactive), the GI50 (EKVX) was 42.6 µM (inactive) and the GI50 (ACHN) was 20.7 µM (inactive). For the same compound, the GI50 (HOP-92) was > 10 µM (inactive), the GI50 (Malme-3M) was 23.1 µM (inactive) and the GI50 (KM12) was 23.9 µM (inactive). The GI50 (OVCAR-8) was 20.8 µM (inactive), the GI50 (MOLT-4) was 20 µM (inactive) and the GI50 (COLO 205) was 27 µM (inactive). The GI50 (RXF 393) was 16.9 µM (inactive), the GI50 (HCC 2998) was 16.5 µM (inactive) and the GI50 (SK-MEL-5) was 22.4 µM (inactive). The GI50 (SK-MEL-2) was 17.4 µM (inactive).
